# Source: US10501748B2, “Methods and compositions for integration of an exogenous sequence within the genome of plants” (Dow AgroSciences LLC, priority 2013, dated 2019)
# Tests used:
# [1] = test system: cv. Clearfield Janz (S653/S653) and (N653/N653) plants; assay: basal tolerance/resistance to IMAZAMOX at the plant regeneration stage, modified approach (plant growth); format: in vivo, Triticum aestivum; conditions: 3 weeks
# Description: The basal tolerance of the cv. Clearfield Janz (S653/S653) genotype and basal resistance of the cv. Clearfield Janz (N653/N653) genotype to IMAZAMOX® at the plant regeneration stage was determined using a modified approach, as cv. […] Seed for each cv. Clearfield Janz genotype was germinated using the aseptic approach described above for producing wheat mesophyll protoplasts. The germinated seedlings were multiplied in vitro by sub-culturing on multiplication medium. Following multiplication, plants for each genotype were transferred to 10 cm PETRI™ dishes containing plant growth medium (MS+10 μM BA+0.8% agar) supplemented with 0, 100, 300, 600, 900, 1200, 1500 and 3000 nM IMAZAMOX®, respectively. Ten plants were placed in each PETRI™ dish. A total of 30 plants per genotype were tested for basal response at each IMAZAMOX® concentration. After incubation for 3 weeks at 24° C. under a 16/8 (light/dark) hour photoperiod in a growth room, the growth response was recorded. […] This response was similar to that observed for the cv. Bobwhite MPB26RH (S653/S653) genotype. In contrast, plant growth for the cv.
# [2] = test system: somatic embryogenic callus of cv. Bobwhite MPB26RH; assay: basal tolerance to IMAZAMOX at the plant regeneration stage; format: cell-based, Triticum aestivum; conditions: 200 nM, 2 weeks, compared to untreated samples
# Description: The basal tolerance of the donor wheat line cv. Bobwhite MPB26RH to IMAZAMOX® at the plant regeneration stage was determined as follows: Scutella of immature zygotic embryos from the donor wheat line were isolated as described previously and placed in 10 cm PETRI™ dishes containing CIM medium. Somatic embryogenic callus was allowed to form by incubating at 24° C. in the dark for 4 weeks. The SEC was transferred to 10 cm PETRI™ dishes containing DRM medium supplemented with 0, 100, 200, 300, 400, 500 and 1000 nM IMAZAMOX® respectively. Twenty CIM were placed in each PETRI™ dish. A total of 60 CIM were tested for basal tolerance response at each IMAZAMOX® concentration. After incubation for 2 weeks at 24° C. under a 16/8 (light/dark) hour photoperiod in a growth room, the regeneration response was recorded.
# [3] = test system: regenerated plants of cv. Bobwhite MPB26RH; assay: basal tolerance to IMAZAMOX at the plant rooting stage; format: in vivo, Triticum aestivum; conditions: all concentrations tested (100-500 nM), 3 weeks
# Description: The basal tolerance of the donor wheat line cv. Bobwhite MPB26RH to IMAZAMOX® at the plant rooting stage was determined as follows: Scutella of immature zygotic embryos from the donor wheat line were isolated as described previously and placed in 10 cm PETRI™ dishes containing CIM medium. Somatic embryogenic callus was allowed to form by incubating at 24° C. in the dark for 4 weeks. The SEC was transferred to 10 cm PETRI™ dishes containing DRM medium and incubated for 2 weeks at 24° C. under a 16/8 (light/dark) hour photoperiod to allow plant regeneration to take place. Regenerated plants were transferred to 10 cm PETRI™ dishes containing RM medium supplemented with 0, 100, 200, 300, 400, 500 nM IMAZAMOX®, respectively. Twenty regenerated plants were placed in each PETRI™ dish. A total of 60 regenerated plants were tested for basal tolerance response at each IMAZAMOX® concentration. After incubation for 3 weeks at 24° C. under a 16/8 (light/dark) hour photoperiod in a growth room, the root formation response was recorded.
structure (smiles),measurement,setting,value
COCc1cnc(C2=NC(C)(C(C)C)C(=O)N2)c(C(=O)O)c1 (stereo not shown) [IMAZAMOX],concentration above which plant growth was strongly suppressed,[1]; cv. Clearfield Janz (N653/N653),"exceeded 2,000 nM"
same,plant growth compared to untreated samples,"[1]; cv. Clearfield Janz (S653/S653), medium containing at least 200 nM",severely reduced
same,reduction of plant regeneration,[2],about 80%
same,root formation compared to untreated samples,[3],severely restricted
